Where no end group is shown, it is not given here. [ ]: non-standard residue; d: D form. Aib = CC(C)(N)C(=O)O
Columns and labels:
SK-OV-3 cells = assay: SK-OV-3 growth inhibition, 72 hr, MTT assay; assay type: cell-based, human; settings: for SK-OV-3 growth inhibition, comparison of anchor lipids: conjugates tested as C-m-HDLs prepared by solvent lyophilization, FIGS. 12A and 12B; for SK-OV-3 growth inhibition, comparison of peptides: tested as C-m-HDLs loaded with conjugate 20 made with the named peptide, FIG. 13
Protocol: In this Example, the mole portions of components in the C-m-HDLs prepared by solvent lyophilization were POPC: egg SM: peptide: conjugate 5.6:2.4:2:1. 20 mM stock solutions of POPC and of egg SM were prepared in tert-butyl alcohol: water (8:2 v/v). Peptide SEQ ID NO: 25 (acetate counter ion) was dissolved in tert-butyl alcohol/water/acetic acid (80:20:7 v/v) to obtain a 10 mM peptide solution. Conjugates 20 and 30 were separately dissolved in tert-butyl alcohol: water (95:5) to a final concentration of 10 mM.
For C-m-HDL preparation, 2.8 mL of 20 mM POPC, 1.2 mL of 20 mM egg SM, 2 mL of 10 mM peptide, 1 mL of 10 mM conjugate, and 0.3 mL acetic acid were combined in a 20 mL glass vial. The combined solution was frozen at ≥−70° C. for ≥1 hr. The frozen vial was placed in the chamber of a lyophilizer set at a shelf temperature of −20° C. A vacuum between 100 to 150 mTorr was applied for >20 hr. The shelf temperature was raised to −10° C. and the vacuum was continued for >15 hr. The shelf temperature was then raised to 20° C. and the vacuum continued for 24 hr. The dried cake was dissolved in PBS to obtain C-m-HDLs. The uniformity of the C-m-HDLs was evaluated by SEC (Acclaim™ SEC-1000, 300 mm×4.6 mm column, 0.3 mL/min PBS mobile phase, 210 nm and 280 nm UV detection) and by dynamic light scattering. The phospholipid content was established with a commercially available, enzyme-based, colorimetric assay kit. Peptide and conjugate content were established by HPLC.
Two C-m-HDLs were prepared as above, containing either Conjugate 20 or Conjugate 30 were then tested for their growth inhibition activity against SK-OV-3 cells (ATCC). SK-OV-3 cells were grown in McCoy's-5A media supplemented with 10% fetal bovine serum and maintained in a 37° C. incubator under a 5% CO2 atmosphere. To assess growth inhibition, the growth medium of cells grown in 96-well plates was supplemented with various concentrations of C-m-HDL (cmpd 20), C-m-HDL (compd 30) or paclitaxel from a DMSO stock solution. The 96-well plates were incubated for 72 hr. The relative amount of live cells in each of the wells after 72 hr was determined with the MTT assay. The concentrations of test articles causing 50% growth inhibition (GIso) were obtained by performing a non-linear fit of the MTT results to a 4-parmeter logistic function. The results are plotted in FIG. 11.

Sprague-Dawley rats = assay: Adrenal gland functionality in rats after dosing (ACTH challenge, plasma corticosterone); assay type: in vivo; settings: 4 mg/kg on Days 1, 4 and 7; ACTH challenge Day 11; paclitaxel intraperitoneal, C-m-HDL intravenous; FIG. 10
Protocol: A paclitaxel stock solution was prepared by dissolving paclitaxel in 1:1 (v/v) Cremophor EL/ethanol (95%) to a final paclitaxel concentration of […] (C-E paclitaxel solution). Next, a paclitaxel solution suitable for dosing was prepared by combining one volume of the C-E paclitaxel solution with 3 volumes of 0.9 weight % NaCl. This solution is designated as “Control”.
C-m-HDL (cmpd 20) was prepared as per Example 12.
The in vivo study was conducted in rats in accordance with the current guidelines for animal welfare (Guide for the Care and Use of Laboratory Animals, 8th Ed., 2011). The procedures used in the study were reviewed and approved by the Institutional Animal Care and Use Committee.
Eighteen (18) female Sprague-Dawley rats were randomly assigned to 3 groups of 6 animals each. All animals were lightly anesthetized using isoflurane and dosed intraperitoneally on Days 1, 4, and 7 with paclitaxel at 4 mg/kg in a dose volume of 1.5 mL/kg, or intravenously with C-m-HDL (cmpd 20) at 4 mg/kg or vehicle (saline) via the tail vein using a dose volume of 1.5 mL/kg. Group 1 received saline, Group 2 received paclitaxel, and Group 3 received C-m-HDL (cmpd 20). On Day 11, rats in each group were lightly anesthetized using isoflurane within their home cage to minimize potential stress responses. […] Plasma corticosterone content was determined with a commercially available ELISA kit.

## CC(=O)O[C@H]1C(=O)[C@@]2(C)[C@H]([C@H](OC(=O)c3ccccc3)[C@]3(O)C[C@H](OC(=O)[C@H](OC(=O)Oc4cc(C)c5c(c4)CC[C@@](C)(CC/C=C(\C)CC/C=C(\C)CCC=C(C)C)O5)[C@@H](NC(=O)c4ccccc4)c4ccccc4)C(C)=C1C3(C)C)[C@]1(OC(C)=O)CO[C@@H]1C[C@@H]2O [Conjugate 20, paclitaxel-delta-tocotrienol conjugate]
SK-OV-3 cells
  SK-OV-3 growth inhibition, comparison of anchor lipids: equivalent results
SK-OV-3 cells; listed as paclitaxel-delta-tocotrienol
  SK-OV-3 growth inhibition, comparison of anchor lipids: essentially equivalent

## CC(=O)O[C@H]1C(=O)[C@@]2(C)[C@H]([C@H](OC(=O)c3ccccc3)[C@]3(O)C[C@H](OC(=O)[C@H](O)[C@@H](NC(=O)c4ccccc4)c4ccccc4)C(C)=C1C3(C)C)[C@]1(OC(C)=O)CO[C@@H]1C[C@@H]2O [paclitaxel]
Sprague-Dawley rats
  adrenal function / adrenal toxicity: lack of adrenal toxicity

## DVFQKLXELFNQLLEKWKQV (DVFQKL[Aib]ELFNQLLEKWKQV) [SEQ ID NO: 25, amphiphilic, alpha-helical peptide used to prepare C-m-HDLs]
SK-OV-3 cells
  SK-OV-3 growth inhibition, comparison of peptides: substantially the same

## DVFQKLXELFNQLXEKWKQV (DVFQKL[Aib]ELFNQL[Aib]EKWKQV) [SEQ ID NO: 35, amphiphilic, alpha-helical peptide used to prepare C-m-HDLs]
SK-OV-3 cells
  SK-OV-3 growth inhibition, comparison of peptides: substantially the same

Reference: patent US20250345454A1, “CHEMOTHERAPEUTIC PACLITAXEL BASED MICELLULAR NANOPARTICLES” (Peptinovo Biopharma Inc., priority 2024, published 2025)
